The results in this text go back to US4501755A, “Isoflavones useful as anti-inflammatory agents” (Pennwalt Corporation, priority 1982, dated 1985).

Structures can show the parent of a compound that is named as a salt.

For the experiment, the system named is carrageenan-induced paw edemas of test rats. Nature of the experiment: carrageenan-induced paw edema (anti-inflammatory activity). The class given is in vivo, Male, Sprague-Dawley rats. The conditions noted are these: 50 mg/kg p.o.; carrageenan injected 2 hours after dosing, paw volume measured 3 hours later; control group paw volume as 100% edema. On the procedure: These properties were determined by carrageenan-induced paw edemas of test rats. Male, Sprague-Dawley rats (Blue Spruce Farm) were ordered at 124-140 g, housed for one week, and allowed food and water ad libitum. At the time of the experiments, only rats weighing 160-200 g were used.
All compounds were dissolved or suspended in a 0.5% water solution of Methocel and orally administered to groups of six rats each. Control rats received Methocel only. Two hours later, paw edema was induced by subcutaneous injection into the plantar surface of the right hind paw of 0.1 ml of a 1.0% homogenized suspension of carrageenan.
Immediately, the volume of the paw was measured by immersing it in mercury to above the lateral mateolus. The mercury in a glass cylinder 22 mm in diameter and 60 mm deep was connected at the bottom of the cylinder by a column of water to a Statham transducer (model P23BB), range 0-5 cm of mercury pressure. The volume was recorded electronically on a Beckman recorder, R511. Three hours later, the inflamed paw volume was measured again, and the change in volume was recorded for each group. The percent inhibition of edema was calculated using the control group paw volume as 100% edema, i.e.,
Turning to `CC(C)NCC(O)COc1ccc2c(=O)c(-c3ccccc3)c(C(C)C)oc2c1` (stereo not drawn) [Example 5, 7-(2-hydroxy-3-isopropylaminopropoxy)-2-isopropylisoflavone maleate], the “% Inhibition of Edema” value came to 29%.

Consider `CC(C)NCC(O)COc1ccc2c(=O)c(-c3ccccc3)c(C(F)(F)F)oc2c1` (stereo not drawn) [Example 4, 7-(2-hydroxy-3-isopropylaminopropoxy)-2-trifluoromethylisoflavone hydrochloride], for which the “% Inhibition of Edema” value was 31%.

As for `CC(C)NCC(O)COc1ccc2c(=O)c(-c3ccccc3)coc2c1` (stereo not drawn) [Example 1, 7-(2-hydroxy-3-isopropylaminopropoxy)-3-phenylchromone hydrochloride], the “% Inhibition of Edema” value was found to be 45%.
